For four cell lines, relative viability results are on record in the supplement of paper PMC10307832.

Common to all, as to test: relative viability (nuclei count vs DMSO), 5 days (fraction); higher = more cells survive
Compound in the test “ALW-II-49-7 + Pemetrexed”: Cc1ccc(C(=O)Nc2cccc(C(F)(F)F)c2)cc1Nc1cncc(C(N)=O)c1 [ALW-II-49-7] + Nc1nc2[nH]cc(CCc3ccc(C(=O)N[C@@H](CCC(=O)O)C(=O)O)cc3)c2c(=O)[nH]1 [Pemetrexed] (partner 0.2 µM)
The procedure, abridged: (§1)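 Cells from lung cancer lines were seeded into 1536-well plates and, one day later, dosed by pin tool. Treatments were either a single drug or a fixed dose of an anchor drug with five library-drug doses (not always all listed) in √10 steps. After 5 days, nuclei were stained in a one-step fixation (final 0.05% Triton X-100, 1% formaldehyde, 1 ug/ml Hoechst) and counted on 4× images, and relative viability is the treated-to-vehicle nuclei ratio, as the median of duplicate plates.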

Compound in the test “XMD13-2 + Bortezomib”: C1CC1C(=O)NC2=NNC3=C2C=CC(=C3)C4=CC(=CC=C4)C(=O)NC5CC5 [XMD13-2] + CC(C)C[C@H](NC(=O)[C@H](Cc1ccccc1)NC(=O)c1cnccn1)B(O)O [Bortezomib] (partner 0.002 µM)
The procedure, abridged: as §1

Compound in the test “Dasatinib + Bortezomib”: Cc1nc(Nc2ncc(C(=O)Nc3c(C)cccc3Cl)s2)cc(N2CCN(CCO)CC2)n1 [Dasatinib] + CC(C)C[C@H](NC(=O)[C@H](Cc1ccccc1)NC(=O)c1cnccn1)B(O)O [Bortezomib] (partner 0.002 µM)
The procedure, abridged: as §1

Compound in the test “ALW-II-49-7 + Lapatinib”: Cc1ccc(C(=O)Nc2cccc(C(F)(F)F)c2)cc1Nc1cncc(C(N)=O)c1 [ALW-II-49-7] + CS(=O)(=O)CCNCc1ccc(-c2ccc3ncnc(Nc4ccc(OCc5cccc(F)c5)c(Cl)c4)c3c2)o1 [Lapatinib] (partner 2 µM)
Put shortly: as §1

Regarding CAL-12T, the relative viability came out at 1.16 with ALW-II-49-7 + Pemetrexed (first compound 0.08 µM); 1.3 with ALW-II-49-7 + Pemetrexed (first compound 0.253 µM); 1.27 with ALW-II-49-7 + Pemetrexed (first compound 0.8 µM); 1.25 in the test with ALW-II-49-7 + Pemetrexed (first compound 2.53 µM); 0.749 with ALW-II-49-7 + Pemetrexed (first compound 8 µM); 1.2 with XMD13-2 + Bortezomib (first compound 0.05 µM). The relative viability with XMD13-2 + Bortezomib (first compound 0.5 µM) worked out at 1.01; with XMD13-2 + Bortezomib (first compound 1.581 µM), 0.837; in the test with XMD13-2 + Bortezomib (first compound 5 µM), 1.16; in the test with Dasatinib + Bortezomib (first compound 0.005 µM) it was 0.992; with Dasatinib + Bortezomib (first compound 0.01581 µM) it was 1.06; with Dasatinib + Bortezomib (first compound 0.05 µM) it was 0.875. Moreover, the relative viability turned out to be 0.354 with Dasatinib + Bortezomib (first compound 0.1581 µM); 0.207 with Dasatinib + Bortezomib (first compound 0.5 µM); 0.641 with ALW-II-49-7 + Lapatinib (first compound 0.08 µM); 0.568 with ALW-II-49-7 + Lapatinib (first compound 2.53 µM); 0.697 with ALW-II-49-7 + Lapatinib (first compound 8 µM).

Turning to COR-L23, the relative viability with ALW-II-49-7 + Pemetrexed (first compound 0.08 µM) stood at 0.198; with ALW-II-49-7 + Pemetrexed (first compound 0.253 µM), 0.208; with ALW-II-49-7 + Pemetrexed (first compound 0.8 µM), 0.206; with ALW-II-49-7 + Pemetrexed (first compound 2.53 µM), 0.204; in the test with ALW-II-49-7 + Pemetrexed (first compound 8 µM) it was 0.177; with XMD13-2 + Bortezomib (first compound 0.05 µM), 1.12. In addition, the relative viability with XMD13-2 + Bortezomib (first compound 0.1581 µM) was 0.994; with XMD13-2 + Bortezomib (first compound 0.5 µM), 1.04; with XMD13-2 + Bortezomib (first compound 1.581 µM) it was 1.08; in the test with XMD13-2 + Bortezomib (first compound 5 µM), 1.09; with Dasatinib + Bortezomib (first compound 0.005 µM) it was 0.938; with Dasatinib + Bortezomib (first compound 0.01581 µM), 0.849. The relative viability in the test with Dasatinib + Bortezomib (first compound 0.05 µM) was determined as 0.862; with Dasatinib + Bortezomib (first compound 0.1581 µM), 0.654; in the test with Dasatinib + Bortezomib (first compound 0.5 µM) it was 0.646; with ALW-II-49-7 + Lapatinib (first compound 0.08 µM) it was 0.919; in the test with ALW-II-49-7 + Lapatinib (first compound 0.253 µM), 0.656; with ALW-II-49-7 + Lapatinib (first compound 0.8 µM) it was 1.16. In addition, the relative viability was 1.01 with ALW-II-49-7 + Lapatinib (first compound 2.53 µM) and 1.08 in the test with ALW-II-49-7 + Lapatinib (first compound 8 µM).

Take COR-L 105: the relative viability with ALW-II-49-7 + Pemetrexed (first compound 0.08 µM) turned out to be 1.16; in the test with ALW-II-49-7 + Pemetrexed (first compound 0.253 µM), 1.06; with ALW-II-49-7 + Pemetrexed (first compound 0.8 µM), 1.21; in the test with ALW-II-49-7 + Pemetrexed (first compound 2.53 µM) it was 0.959; with ALW-II-49-7 + Pemetrexed (first compound 8 µM), 0.974; with XMD13-2 + Bortezomib (first compound 0.05 µM), 1.06. Moreover, the relative viability with XMD13-2 + Bortezomib (first compound 0.1581 µM) is 0.953; with XMD13-2 + Bortezomib (first compound 0.5 µM) it was 0.737; with XMD13-2 + Bortezomib (first compound 1.581 µM) it was 0.905; with XMD13-2 + Bortezomib (first compound 5 µM) it was 0.75; with Dasatinib + Bortezomib (first compound 0.005 µM) it was 0.611; in the test with Dasatinib + Bortezomib (first compound 0.01581 µM), 0.51. In addition, the relative viability with Dasatinib + Bortezomib (first compound 0.05 µM) turned out to be 0.498; with Dasatinib + Bortezomib (first compound 0.1581 µM), 0.318; with Dasatinib + Bortezomib (first compound 0.5 µM) it was 0.273; in the test with ALW-II-49-7 + Lapatinib (first compound 0.08 µM), 0.318; with ALW-II-49-7 + Lapatinib (first compound 0.253 µM), 0.372; in the test with ALW-II-49-7 + Lapatinib (first compound 0.8 µM), 0.335. Further, the figures for the relative viability with ALW-II-49-7 + Lapatinib (first compound 2.53 µM) and with ALW-II-49-7 + Lapatinib (first compound 8 µM) were 0.359 and 0.416, respectively.

Take Calu-6: the relative viability with XMD13-2 + Bortezomib (first compound 0.05 µM) came out at 1; in the test with XMD13-2 + Bortezomib (first compound 0.1581 µM), 1.04; in the test with XMD13-2 + Bortezomib (first compound 0.5 µM), 1.1; in the test with XMD13-2 + Bortezomib (first compound 1.581 µM) it was 0.871; in the test with XMD13-2 + Bortezomib (first compound 5 µM), 0.789; in the test with Dasatinib + Bortezomib (first compound 0.005 µM), 0.869. In addition, the relative viability came to 0.855 with Dasatinib + Bortezomib (first compound 0.01581 µM); 0.746 in the test with Dasatinib + Bortezomib (first compound 0.05 µM); 0.642 with Dasatinib + Bortezomib (first compound 0.1581 µM); 0.513 with Dasatinib + Bortezomib (first compound 0.5 µM); 0.896 in the test with ALW-II-49-7 + Lapatinib (first compound 0.08 µM); 1.08 with ALW-II-49-7 + Lapatinib (first compound 0.253 µM). Further, the relative viability in the test with ALW-II-49-7 + Lapatinib (first compound 0.8 µM) was found to be 1.02; in the test with ALW-II-49-7 + Lapatinib (first compound 2.53 µM), 1.59; with ALW-II-49-7 + Lapatinib (first compound 8 µM), 1.02.
